Assay results published in ChEMBL document CHEMBL1811872, “Tryptophan 2,3-dioxygenase (TDO) inhibitors. 3-(2-(pyridyl)ethenyl)indoles as potential anticancer immunomodulators” (J Med Chem, 2011).
Active and inactive are the calls of the source. The rule behind the calls is not given here.

How the values were obtained:
[1] = target: Sodium-dependent dopamine transporter (Homo sapiens) (UniProt Q01959); assay: Displacement of [3H]BTCP from human DA transporter at 10 uM relative to control
[2] = target: 5-hydroxytryptamine receptor 6 (Homo sapiens) (UniProt P50406); assay: Displacement of [3H]LSD from human 5HT6 receptor at 10 uM relative to control
[3] = target: Beta-1 adrenergic receptor (Homo sapiens) (UniProt P08588); assay: Displacement of [3H](-)-CGP12177 from human adrenergic beta1 receptor at 10 uM relative to control
[4] = target: 5-hydroxytryptamine receptor 2B (Homo sapiens) (UniProt P41595); assay: Displacement of [125I](+/-)-DOI from human 5HT2B receptor at 10 uM relative to control
[5] = Displacement of [3H]prazosin from adrenergic alpha1 receptor at 10 uM relative to control
[6] = target: Sodium-dependent serotonin transporter (Homo sapiens) (UniProt P31645); assay: Displacement of [3H]imipramine from human 5HT transporter at 10 uM relative to control
[7] = target: Melatonin receptor type 1A (Homo sapiens) (UniProt P48039); assay: Displacement of [125I]2-iodomelatonin from human MT1 receptor at 10 uM relative to control
[8] = target: 5-hydroxytryptamine receptor 1B (Homo sapiens) (UniProt P28222); assay: Displacement of [125I]CYP from human 5HT1B receptor at 10 uM relative to control
[9] = target: D(1A) dopamine receptor (Homo sapiens) (UniProt P21728); assay: Displacement of [3H]SCH23390 from human dopamine D1 receptor at 10 uM relative to control
[10] = target: 5-hydroxytryptamine receptor 5A (Homo sapiens) (UniProt P47898); assay: Displacement of [3H]LSD from human 5HT5A receptor at 10 uM relative to control
[11] = Displacement of [3H]RX821002 from adrenergic alpha2 receptor at 10 uM relative to control
[12] = target: D(2) dopamine receptor (Homo sapiens) (UniProt P14416); assay: Displacement of [3H]methyl-spiperone from human dopamine D2s receptor at 10 uM relative to control
P815B = assay: Antitumor activity against mouse P815B cells expressing TDO xenografted in immunized mouse assessed as tumor growth inhibition at 160 mg/kg/day, po administered with water; type: functional, organism-based
[13] = target: Sodium-dependent noradrenaline transporter (Homo sapiens) (UniProt P23975); assay: Displacement of [3H]nisoxetine from human NE transporter at 10 uM relative to control
[14] = target: T1, 5-hydroxytryptamine receptor 1A (Homo sapiens) (UniProt P08908); assay: Displacement of [3H]8-OH-DPAT from human 5HT1A receptor at 10 uM relative to control
T1 sequence (whole entry): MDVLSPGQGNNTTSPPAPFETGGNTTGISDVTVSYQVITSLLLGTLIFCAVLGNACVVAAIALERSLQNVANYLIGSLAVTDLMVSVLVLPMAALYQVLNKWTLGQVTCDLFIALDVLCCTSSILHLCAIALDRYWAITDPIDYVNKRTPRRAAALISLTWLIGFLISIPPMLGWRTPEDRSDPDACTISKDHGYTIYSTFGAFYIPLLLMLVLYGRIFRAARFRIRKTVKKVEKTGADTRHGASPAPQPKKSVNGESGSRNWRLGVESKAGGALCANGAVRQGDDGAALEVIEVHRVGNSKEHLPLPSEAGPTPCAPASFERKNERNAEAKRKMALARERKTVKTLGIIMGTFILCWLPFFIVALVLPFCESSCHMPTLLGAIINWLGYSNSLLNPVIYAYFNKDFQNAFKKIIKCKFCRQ

[15] = target: 5-hydroxytryptamine receptor 7 (Homo sapiens) (UniProt P34969); assay: Displacement of [3H]LSD from human 5HT7 receptor at 10 uM relative to control
[16] = target: Indoleamine 2,3-dioxygenase 1 (Homo sapiens) (UniProt P14902); assay: Inhibition of IDO at 10 uM
[17] = target: 5-hydroxytryptamine receptor 2A (Homo sapiens) (UniProt P28223); assay: Displacement of [3H]ketanserin from human 5HT2A receptor at 10 uM relative to control
[18] = target: T2, 5-hydroxytryptamine receptor 3A (Homo sapiens) (UniProt P46098); assay: Displacement of [3H]BRL43694 from human 5HT3 receptor at 10 uM relative to control
T2 sequence (whole entry): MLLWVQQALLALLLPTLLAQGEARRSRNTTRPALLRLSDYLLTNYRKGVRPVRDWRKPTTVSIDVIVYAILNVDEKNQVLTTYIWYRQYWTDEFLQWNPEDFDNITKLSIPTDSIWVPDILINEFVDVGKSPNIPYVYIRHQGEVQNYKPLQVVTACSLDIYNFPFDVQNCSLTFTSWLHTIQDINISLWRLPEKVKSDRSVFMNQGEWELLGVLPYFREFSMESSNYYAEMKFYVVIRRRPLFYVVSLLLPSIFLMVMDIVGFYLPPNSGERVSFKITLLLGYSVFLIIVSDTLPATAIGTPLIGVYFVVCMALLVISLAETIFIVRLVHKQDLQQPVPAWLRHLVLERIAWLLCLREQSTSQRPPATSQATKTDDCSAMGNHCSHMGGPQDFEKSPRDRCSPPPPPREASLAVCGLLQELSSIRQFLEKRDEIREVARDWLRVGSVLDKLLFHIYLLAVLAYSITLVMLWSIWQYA

[19] = target: Beta-2 adrenergic receptor (Homo sapiens) (UniProt P07550); assay: Displacement of [3H](-)-CGP12177 from human adrenergic beta2 receptor at 10 uM relative to control

Sequence of Sodium-dependent serotonin transporter (Homo sapiens) (P31645 whole entry, looked up): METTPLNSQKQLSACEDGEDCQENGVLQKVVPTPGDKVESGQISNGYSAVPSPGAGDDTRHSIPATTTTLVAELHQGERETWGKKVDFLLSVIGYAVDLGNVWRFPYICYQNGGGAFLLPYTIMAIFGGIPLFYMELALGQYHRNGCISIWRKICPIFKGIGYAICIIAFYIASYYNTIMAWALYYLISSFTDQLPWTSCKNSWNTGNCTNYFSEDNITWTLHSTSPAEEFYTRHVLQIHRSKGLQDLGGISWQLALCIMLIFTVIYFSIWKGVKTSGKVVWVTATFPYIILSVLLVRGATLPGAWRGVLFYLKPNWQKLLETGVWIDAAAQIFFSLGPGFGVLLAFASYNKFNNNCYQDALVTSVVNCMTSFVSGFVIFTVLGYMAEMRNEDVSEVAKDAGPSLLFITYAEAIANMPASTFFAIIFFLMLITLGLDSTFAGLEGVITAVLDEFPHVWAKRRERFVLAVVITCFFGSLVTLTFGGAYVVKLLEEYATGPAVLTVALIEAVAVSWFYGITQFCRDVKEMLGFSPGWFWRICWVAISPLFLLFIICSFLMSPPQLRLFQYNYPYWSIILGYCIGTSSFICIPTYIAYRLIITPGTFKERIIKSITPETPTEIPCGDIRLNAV
Sequence of Sodium-dependent dopamine transporter (Homo sapiens) (Q01959 whole entry): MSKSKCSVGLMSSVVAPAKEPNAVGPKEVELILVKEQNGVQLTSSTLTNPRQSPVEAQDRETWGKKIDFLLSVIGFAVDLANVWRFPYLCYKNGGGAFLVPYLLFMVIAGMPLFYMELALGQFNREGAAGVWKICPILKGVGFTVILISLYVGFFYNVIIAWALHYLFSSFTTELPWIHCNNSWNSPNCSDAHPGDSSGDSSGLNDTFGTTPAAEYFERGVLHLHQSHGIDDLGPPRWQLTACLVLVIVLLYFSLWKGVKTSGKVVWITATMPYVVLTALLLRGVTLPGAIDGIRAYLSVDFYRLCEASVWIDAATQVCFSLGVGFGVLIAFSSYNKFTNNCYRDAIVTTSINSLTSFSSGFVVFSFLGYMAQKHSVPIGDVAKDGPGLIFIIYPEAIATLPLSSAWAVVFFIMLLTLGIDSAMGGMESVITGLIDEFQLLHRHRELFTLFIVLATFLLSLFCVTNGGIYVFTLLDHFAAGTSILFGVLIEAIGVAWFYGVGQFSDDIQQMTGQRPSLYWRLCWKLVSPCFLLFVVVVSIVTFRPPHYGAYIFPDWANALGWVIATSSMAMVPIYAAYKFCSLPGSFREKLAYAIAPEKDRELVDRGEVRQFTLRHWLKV
Sequence of D(1A) dopamine receptor (Homo sapiens) (P21728 whole entry): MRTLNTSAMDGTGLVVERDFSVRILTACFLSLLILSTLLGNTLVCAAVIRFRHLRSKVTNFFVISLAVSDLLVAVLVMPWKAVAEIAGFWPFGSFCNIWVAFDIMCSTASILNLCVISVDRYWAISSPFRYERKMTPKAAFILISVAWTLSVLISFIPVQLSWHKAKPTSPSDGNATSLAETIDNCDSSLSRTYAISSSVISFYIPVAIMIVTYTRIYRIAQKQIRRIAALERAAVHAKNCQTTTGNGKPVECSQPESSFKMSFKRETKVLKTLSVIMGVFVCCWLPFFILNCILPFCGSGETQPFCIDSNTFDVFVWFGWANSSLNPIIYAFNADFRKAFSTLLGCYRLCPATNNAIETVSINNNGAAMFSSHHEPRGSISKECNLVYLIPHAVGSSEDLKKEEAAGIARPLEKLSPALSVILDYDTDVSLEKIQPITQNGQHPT
Sequence of 5-hydroxytryptamine receptor 6 (Homo sapiens) (P50406 whole entry): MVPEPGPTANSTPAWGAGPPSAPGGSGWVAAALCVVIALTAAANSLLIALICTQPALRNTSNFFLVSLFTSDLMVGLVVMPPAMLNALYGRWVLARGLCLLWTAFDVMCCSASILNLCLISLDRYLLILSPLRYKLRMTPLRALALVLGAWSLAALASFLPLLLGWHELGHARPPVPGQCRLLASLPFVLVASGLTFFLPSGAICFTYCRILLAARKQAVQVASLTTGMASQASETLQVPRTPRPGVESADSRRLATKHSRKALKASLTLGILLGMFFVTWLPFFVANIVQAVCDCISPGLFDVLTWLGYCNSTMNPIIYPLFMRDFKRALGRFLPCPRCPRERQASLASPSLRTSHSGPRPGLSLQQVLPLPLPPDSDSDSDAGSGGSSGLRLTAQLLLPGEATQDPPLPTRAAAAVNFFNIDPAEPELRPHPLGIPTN
Sequence of 5-hydroxytryptamine receptor 2A (Homo sapiens) (P28223 whole entry): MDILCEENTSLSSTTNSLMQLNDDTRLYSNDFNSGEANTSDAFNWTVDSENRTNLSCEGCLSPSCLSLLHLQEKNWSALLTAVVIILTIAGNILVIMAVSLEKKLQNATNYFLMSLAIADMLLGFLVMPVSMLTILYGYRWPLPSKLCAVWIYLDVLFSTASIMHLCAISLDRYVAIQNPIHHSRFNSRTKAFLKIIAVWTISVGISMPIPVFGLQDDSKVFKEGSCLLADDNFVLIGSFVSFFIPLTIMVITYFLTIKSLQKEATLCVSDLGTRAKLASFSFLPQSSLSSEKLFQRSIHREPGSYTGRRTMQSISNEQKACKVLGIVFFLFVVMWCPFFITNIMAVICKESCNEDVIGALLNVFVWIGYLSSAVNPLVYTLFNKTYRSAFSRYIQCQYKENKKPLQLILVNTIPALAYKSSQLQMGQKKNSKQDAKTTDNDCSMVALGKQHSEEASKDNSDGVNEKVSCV
Sequence of 5-hydroxytryptamine receptor 5A (Homo sapiens) (P47898 whole entry): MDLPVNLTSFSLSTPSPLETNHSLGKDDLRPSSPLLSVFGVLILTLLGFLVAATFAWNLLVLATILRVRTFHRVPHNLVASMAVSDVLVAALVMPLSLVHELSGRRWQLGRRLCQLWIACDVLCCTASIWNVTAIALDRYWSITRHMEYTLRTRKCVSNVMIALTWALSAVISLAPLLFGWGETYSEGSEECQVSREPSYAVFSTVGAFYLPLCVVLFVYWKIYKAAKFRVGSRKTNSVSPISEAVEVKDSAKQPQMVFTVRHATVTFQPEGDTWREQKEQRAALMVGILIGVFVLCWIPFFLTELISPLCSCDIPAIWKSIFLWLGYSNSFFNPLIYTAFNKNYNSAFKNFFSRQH
Sequence of 5-hydroxytryptamine receptor 2B (Homo sapiens) (P41595 whole entry): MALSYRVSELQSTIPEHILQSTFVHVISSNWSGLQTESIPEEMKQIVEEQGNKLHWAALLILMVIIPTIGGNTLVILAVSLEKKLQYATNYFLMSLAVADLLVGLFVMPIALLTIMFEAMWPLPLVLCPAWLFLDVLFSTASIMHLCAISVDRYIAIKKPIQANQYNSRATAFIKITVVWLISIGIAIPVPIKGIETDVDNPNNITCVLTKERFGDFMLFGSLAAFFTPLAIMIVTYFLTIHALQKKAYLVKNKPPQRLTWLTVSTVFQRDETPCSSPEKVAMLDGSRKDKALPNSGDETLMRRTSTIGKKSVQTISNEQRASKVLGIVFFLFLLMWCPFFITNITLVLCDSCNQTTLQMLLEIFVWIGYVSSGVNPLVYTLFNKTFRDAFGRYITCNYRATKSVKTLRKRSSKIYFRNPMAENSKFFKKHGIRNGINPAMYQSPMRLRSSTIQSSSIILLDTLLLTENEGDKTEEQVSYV
Sequence of Indoleamine 2,3-dioxygenase 1 (Homo sapiens) (P14902 whole entry, looked up): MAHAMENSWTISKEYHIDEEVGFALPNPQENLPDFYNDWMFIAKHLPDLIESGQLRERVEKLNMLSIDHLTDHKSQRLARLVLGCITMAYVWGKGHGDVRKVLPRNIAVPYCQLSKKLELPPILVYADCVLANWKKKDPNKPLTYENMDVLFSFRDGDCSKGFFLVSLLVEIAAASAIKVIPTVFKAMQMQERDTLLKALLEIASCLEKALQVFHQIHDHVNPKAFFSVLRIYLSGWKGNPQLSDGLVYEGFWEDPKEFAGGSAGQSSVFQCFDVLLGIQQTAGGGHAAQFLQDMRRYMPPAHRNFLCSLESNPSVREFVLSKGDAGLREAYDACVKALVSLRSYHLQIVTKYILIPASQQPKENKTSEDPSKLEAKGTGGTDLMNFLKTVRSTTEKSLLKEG
Sequence of D(2) dopamine receptor (Homo sapiens) (P14416 whole entry): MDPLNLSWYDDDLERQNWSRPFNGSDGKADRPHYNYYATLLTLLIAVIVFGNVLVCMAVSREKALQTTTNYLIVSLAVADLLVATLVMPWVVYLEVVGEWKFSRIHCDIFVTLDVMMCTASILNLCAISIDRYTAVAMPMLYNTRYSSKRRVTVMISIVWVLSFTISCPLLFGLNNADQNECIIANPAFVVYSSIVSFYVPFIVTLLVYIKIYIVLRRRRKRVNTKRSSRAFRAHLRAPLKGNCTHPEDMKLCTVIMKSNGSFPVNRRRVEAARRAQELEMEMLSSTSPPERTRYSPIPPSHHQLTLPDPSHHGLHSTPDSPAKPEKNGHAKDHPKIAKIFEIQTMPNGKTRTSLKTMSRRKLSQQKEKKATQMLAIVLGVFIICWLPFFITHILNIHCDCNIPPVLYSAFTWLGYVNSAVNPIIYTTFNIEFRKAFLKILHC
Sequence of 5-hydroxytryptamine receptor 7 (Homo sapiens) (P34969 whole entry): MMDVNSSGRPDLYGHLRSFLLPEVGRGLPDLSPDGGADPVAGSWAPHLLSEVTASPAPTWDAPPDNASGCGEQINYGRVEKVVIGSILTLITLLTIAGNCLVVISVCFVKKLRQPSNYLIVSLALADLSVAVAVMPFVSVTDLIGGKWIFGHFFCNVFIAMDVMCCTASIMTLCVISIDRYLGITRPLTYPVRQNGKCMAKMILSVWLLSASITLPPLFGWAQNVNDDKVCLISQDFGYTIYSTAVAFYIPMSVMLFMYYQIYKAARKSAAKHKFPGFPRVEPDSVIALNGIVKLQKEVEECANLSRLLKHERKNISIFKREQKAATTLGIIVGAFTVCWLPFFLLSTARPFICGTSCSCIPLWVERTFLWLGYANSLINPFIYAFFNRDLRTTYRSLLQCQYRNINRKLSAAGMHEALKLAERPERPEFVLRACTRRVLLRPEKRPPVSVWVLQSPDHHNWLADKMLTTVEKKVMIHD

Fc1ccc2c(/C=C/c3nnn[nH]3)c[nH]c2c1
inhibition [1]: < 10%
inhibition [2]: < 10%
inhibition [3]: 14%
inhibition [4]: < 10%
inhibition [5]: < 10%
inhibition [6]: 26%
inhibition [7]: < 10%
inhibition [8]: < 10%
inhibition [9]: < 10%
inhibition [10]: < 10%
inhibition [11]: < 10%
inhibition [12]: < 10%
Activity (P815B): Active
inhibition [13]: < 10%
inhibition [14]: < 10%
inhibition [15]: < 10%
inhibition [16]: < 10%
inhibition [17]: < 10%
inhibition [18]: < 10%
inhibition [19]: < 10%
